We go through one sequence from patent publication US10774112B2, “Biomimetic peptide and biodegradable delivery platform for the treatment of angiogenesis- and lymphangiogenesis-dependent diseases” (THE JOHNS HOPKINS UNIVERSITY, priority 2013, dated 2020).

The subject of series [1] is human umbilical vein endothelial cells (HUVEC). As to the kind of experiment: Adhesion assay (RT-CIM), HUVEC. Format: cell-based. Particulars: FIG. 1. How it is done: Similar to the migration assays, the inhibition activity of the peptide in cellular adhesion was assessed using the RT-CIM technology. In this case, 25,000 cells/well were plated in 16 wells E-plates (Roche, Basel Switzerland) in the presence or absence of the peptide. The adhesion was monitored over time (3 hours) by measuring changes in the electrical impedance, which is a direct measure of the cells adhering on the electrodes. Assays were performed in at least two independent replicates and each replicate was performed using two experimental duplicates.

The test system is the same in series [2]. As to the kind of experiment: Migration assay (RT-CIM), HUVEC. Format: cell-based. The note with it: FIG. 1. How it is done: The inhibitory potential of the peptides was measured using a real time migration assay system based on electrical impedance (RT-CIM, ACEA Biosciences, CA). CIM 16 well plates (Roche, 05665817001) are composed of a top and bottom chamber separated by a microporous (8 μm) polycarbonate membrane. The membrane was coated with fibronectin (20 μg/mL), and 45,000 cells/well in serum free media with or without peptides were added to the top compartment. Media with chemoattractant (i.e., fully supplemented EBM-2) was added to the bottom compartment of the chamber and the plate was incubated at 37° C. for 20 hours. The sensors integrated on the bottom side of the membrane monitor and continuously record changes in impedance as the cells move through the membrane. The RT-CIM technology allows for easy quantification of cell migration by monitoring the cell index derived from the measured impedances. Assays were performed in at least two independent replicates and each replicate was performed using two experimental duplicates. Breast cancer cells MDA-MB-231 are not suitable for the RT-CIM type experiments due to their thin elongated phenotype, thus the inhibition of migration was investigated using a wound healing type assay. This assay was performed using the Oris Pro Migration assay (Platypus Technologies, CMA 1.101). […]

The subject of the next series is vascular leakage. As to the kind of experiment: Vascular leakage in Tet/Opsin/VEGF mouse model. Format: in vivo, mice. Particulars: FIGS. 15A-B. How it is done:
Vascular Permeability in Mouse Eyes:
Mice were injected intravitreally with 1 μg of SP2043 (SEQ ID NO: 1) in one eye, and vehicle in the fellow eye and vehicle control was injected in the other eye of adult double transgenic Tet/Opsin/VEGF mice. Three days later, the mice were given 2 mg/mL doxycycline in the drinking water for 3 days. At that time the animals were anesthetized and their pupils dilated as for standard fundoscopy. The eyes were examined to compare the number of animals that had retinal detachments under the two treatments by fundus imaging using Micron II retinal imaging and optical coherence tomography imaging using published protocols.

The test system of another series is lymphangiogenesis. The experiment in a line: Lymphangiogenesis in vivo (LYVE-1 staining). Particulars: FIG. 11.
Series [3] concerns hepatocyte growth factor (HGF) signaling. As to the kind of experiment: HGF signaling in vitro in MEC. Format: cell-based. The note with it: FIG. 6.
The subject of another series is HGF signaling. As to the kind of experiment: HGF signaling in MDA-MB-231 cells. Particulars: FIG. 8. Format: cell-based, human.
Series [4] in a line: Accumulation in tumor and organs after systemic intravenous injection. The note with it: systemically intravenously injected; FIG. 31. Format: in vivo.
The next series deals with c-Met. As to the kind of experiment: Phosphorylation of c-Met in vivo. Particulars: FIG. 10.
For series [5], the system named is VEGF-induced neovascularization. The experiment in a line: rho/VEGF transgenic mice with VEGF-induced neovascularization. Particulars: compared to a control; FIGS. 13C-E. Format: in vivo. How it is done:
Transgenic Mice with VEGF-Induced Neovascularization.
At postnatal day 14, hemizygous rho/VEGF mice were given an intraocular injection of 1 μL of 5% DMSO/water, 1 μL of 5% DMSO/water containing 0.1 μg or 1 μg of SP2043 (SEQ ID No: 1) in one eye. Intraocular injections were done under a dissecting microscope with a Harvard Pump Microinjection System (Harvard Apparatus, Holliston, Mass.) and pulled glass micropipettes. At postnatal day 21, the total area of subretinal neovascularization (NV) per eye was quantified. Briefly, mice were anesthetized and perfused with 1 mL of PBS containing 25 mg/mL of fluorescein-labeled dextran (average molecular weight of 2×10^6, Sigma-Aldrich, St. Louis, Mo.). The eyes were removed and fixed for 1 hour in 10% phosphate-buffered formalin. […] The retinas were examined by fluorescence microscopy at 200× magnification, which provides a narrow depth of field so that when focusing on NV on the outer surface of the retina, the remainder of the retinal vessels are out of focus, allowing easy delineation of the NV. […] By using Image analysis software (Image-Pro Plus; Media Cybernetics, Silver Spring, Md.), an investigator masked with respect to treatment group allowed the software to recognize and calculated the total area of subretinal NV per eye as previously described.

Series [6] deals with insulin growth factor 1 (IGF1) signaling. The experiment in a line: IGF1 signaling in vitro in LEC. Format: cell-based. The note with it: FIG. 6.
Series [7] has as its system triple-negative breast cancer cell line SUM149. The experiment in a line: Proliferation assay (WST-1), SUM149. Format: cell-based. The note with it: in vitro; FIG. 7. How it is done:
A colorimetric based proliferation assay using WST-1 (Roche, 11644807001) proliferation reagent was carried out using HREC cells, HUVEC cells, and the breast cancer cells MDA-MB-231, MCF-7, and SUM149. 2000 cells/well were plated in 96-well plates and allowed to adhere overnight. On the following day, the media was exchanged with fully supplemented media containing peptides or equivalent DMSO vehicle for the controls. Three days later, the media containing the peptides was replaced with serum-free EBM-2 media containing WST-1 reagent and the plates were incubated for four hours as per the manufacturer's recommendations. Changes in color, due to the formazan dye resulted from the cleavage of the tetrazolium salt WST-1 by the mitochondrial succinate-tetrazolium reductase, were read on a Victor V fluorescence plate reader (Perkin Elmer, Mass.) by measuring the absorbance at 450 nm. Dose response curves of percent live cells (in comparison to untreated cells, but incubated in complete media with 0.2% DMSO) were created. Assays were performed in at least two independent replicates and each replicate was performed using three experimental triplicates.
(In general: Formazan colour is commonly taken as a measure of viable cells.)

As to “LRRFSTAPFAFIDINDVINF (Artificial sequence based on human Collagen Type IV protein) [SP2043]”, the “adhesion of HUVEC” value in series [1] is “inhibit”. In addition, in [2], the “migration of HUVEC” value is recorded as “inhibit”. Besides, in the series with vascular leakage, the “vascular leakage in Tet/Opsin/VEGF mouse model” value is on record as “inhibited”. Further, the “lymphangiogenesis as seen by LYVE-1 staining” value with lymphangiogenesis is listed as “inhibited”. Besides, the “HGF signaling in MEC” value in series [3] is “inhibit”. Also, the “HGF signaling in MDA-MB-231 cells” value with HGF signaling is reported as “inhibit”. For the same sequence, the “accumulation in tumor and other organs” value in [4] is “accumulated in tumor as well as other organs”. In addition, the “phosphorylation of c-Met in vivo” value with c-Met is given as “inhibit”. Moreover, in series [5], the “neovascularization in rho-VEGF mouse model” value is reported as “inhibited”. Besides, in [6], the “IGF1 signaling in LEC” value is on record as “inhibit”. For the same sequence, the “proliferation of SUM149” value in series [7] is “inhibit”.
